Measured values published in US20260256792A1, “TREATMENT OF CHRONIC SPONTANEOUS URTICARIA BY ADMINISTERING (R)-2-[3-[4-AMINO-3-(2-FLUORO-4-PHENOXY-PHENYL)PYRAZOLO[3,4-D]PYRIMIDIN-1-YL]PIPERIDINE-1-CARBONYL]-4-METHYL-4-[4-(OXETAN-3-YL)PIPERAZIN-1-YL]PENT-2-ENENITRILE” (priority 2023, published 2026).

Test system: moderate-to-severe chronic spontaneous urticaria (CSU)
Assay: Phase 2 CSU study: hives severity score over 7 days (HSS7)
Type: in vivo, human
Parameters: key to HSS7 Change from baseline, Median / HSS7, Median / HSS7, Max / HSS7 Change from baseline, Q1 / HSS7 Change from baseline, Q3 / HSS7 Change from baseline, Max: 7-day sum of daily hive scores, each 0 = none to 3 = >50 hives
Text: The study comprises a 12 week, randomized, double-blind, placebo-controlled, multi-center, dose-ranging efficacy and safety phase, followed by a 40 week open label extension (OLE) phase (see FIG. 1).
The study consists of three phases and an optional OLE phase.
The UAS is a validated PRO measure. The daily UAS is the sum of the daily Hive Severity Score (HSS, ranging from 0=None to 3=more than 50 hives) and the daily Itch Severity Score (ISS, ranging from 0=None to 3=intense), the 2 key urticaria signs and symptoms which are wheals and itch. The daily UAS scores range from 0 to 6 point/day. Daily UAS scores are summed over 7-day period to create the UAS7, ranging from 0 to 42, and are composed of the HSS7 and ISS7 components. […] Patients were to complete the UAS using the e-diary. The e-diary was to be used once daily on the same time of each day recording of participant's answers to the urticaria activity score over 7 days (UAS7) questionnaire. For participants who entered the OLE phase, their answers to the UAS7 questionnaire were also to be collected from Week 20 to Week24 and from Week 48 to Week 52.
The following secondary endpoints were to be analyzed using the same approach as for the primary endpoint: • Change from baseline in UAS7 at Week 4 • Change from baseline in UAS7 at Week 12 (for US and US reference countries) • Change from baseline in ISS7 at Week 12 (except US and US reference countries) • Change from baseline in HSS7 at Week 12

[1] = Week 4, 400 mg BID, Omalizumab-Naïve Population
[2] = Week 4, 400 mg BID, Patients with Prior Omalizumab Use
[3] = Week 4, 400 mg QPM, Omalizumab-Naïve Population
[4] = Week 4, 400 mg QPM, Patients with Prior Omalizumab Use
[5] = Week 4, 400 mg TID, Omalizumab-Naïve Population
[6] = Week 4, 400 mg TID, Patients with Prior Omalizumab Use
[7] = Week 5, 400 mg BID, Omalizumab-Naïve Population
[8] = Week 5, 400 mg BID, Patients with Prior Omalizumab Use
[9] = Week 5, 400 mg QPM, Omalizumab-Naïve Population
[10] = Week 5, 400 mg QPM, Patients with Prior Omalizumab Use
[11] = Week 5, 400 mg TID, Omalizumab-Naïve Population
[12] = Week 5, 400 mg TID, Patients with Prior Omalizumab Use
[13] = Week 6, 400 mg BID, Omalizumab-Naïve Population
[14] = Week 6, 400 mg BID, Patients with Prior Omalizumab Use
[15] = Week 6, 400 mg QPM, Omalizumab-Naïve Population
[16] = Week 6, 400 mg QPM, Patients with Prior Omalizumab Use
[17] = Week 6, 400 mg TID, Omalizumab-Naïve Population
[18] = Week 6, 400 mg TID, Patients with Prior Omalizumab Use

Structure (SMILES): CC(C)(C=C(C#N)C(=O)N1CCC[C@@H](n2nc(-c3ccc(Oc4ccccc4)cc3F)c3c(N)ncnc32)C1)N1CCN(C2COC2)CC1 [rilzabrutinib, (R)-2-[3-[4-amino-3-(2-fluoro-4-phenoxy-phenyl)pyrazolo[3,4-d]pyrimidin-1-yl]piperidine-1-carbonyl]-4-methyl-4-[4-(oxetan-3-yl)piperazin-1-yl]pent-2-enenitrile]
- HSS7, Mean (SD) [1]: 7.60 (6.00)
- HSS7, Median [1]: 7.00
- HSS7 Change from baseline, Mean (SD) [1]: −6.54 (5.34)
- HSS7 Change from baseline, Median [1]: −6.00
- HSS7 Percent change from baseline, Mean (SD) [1]: −47.44 (37.17) %
- HSS7 Percent change from baseline, Median [1]: −42.86%
- HSS7, Mean (SD) [2]: 6.80 (8.04)
- HSS7, Median [2]: 2.00
- HSS7 Change from baseline, Mean (SD) [2]: −10.00 (8.34)
- HSS7 Change from baseline, Median [2]: −12.00
- HSS7 Percent change from baseline, Mean (SD) [2]: −60.22 (47.52) %
- HSS7 Percent change from baseline, Median [2]: −88.24%
- HSS7 Change from baseline, Mean (SD) [3]: −4.20 (4.74)
- HSS7 Change from baseline, Median [3]: −3.00
- HSS7 Percent change from baseline, Mean (SD) [3]: −26.30 (29.41) %
- HSS7 Percent change from baseline, Median [3]: −16.67%
- HSS7, Mean (SD) [4]: 10.00 (NC)
- HSS7 Change from baseline, Mean (SD) [4]: −10.00 (NC)
- HSS7 Change from baseline, Median [4]: −10.00
- HSS7 Percent change from baseline, Mean (SD) [4]: −50.00 (NC) %
- HSS7 Percent change from baseline, Median [4]: −50.00%
- HSS7, Mean (SD) [5]: 6.85 (4.96)
- HSS7, Median [5]: 6.50
- HSS7 Change from baseline, Mean (SD) [5]: −7.21 (5.24)
- HSS7 Change from baseline, Median [5]: −6.58
- HSS7 Percent change from baseline, Mean (SD) [5]: −50.43 (33.03) %
- HSS7 Percent change from baseline, Median [5]: −50.69%
- HSS7, Mean (SD) [6]: 3.92 (4.26)
- HSS7, Median [6]: 3.17
- HSS7 Change from baseline, Mean (SD) [6]: −12.11 (6.81)
- HSS7 Change from baseline, Median [6]: −12.42
- HSS7 Percent change from baseline, Mean (SD) [6]: −73.06 (22.97) %
- HSS7 Percent change from baseline, Median [6]: −76.19%
- HSS7, Mean (SD) [7]: 8.34 (6.75)
- HSS7, Median [7]: 7.00
- HSS7 Change from baseline, Mean (SD) [7]: −6.01 (5.82)
- HSS7 Change from baseline, Median [7]: −7.00
- HSS7 Percent change from baseline, Mean (SD) [7]: −43.27 (41.28) %
- HSS7 Percent change from baseline, Median [7]: −42.86%
- HSS7, Mean (SD) [8]: 4.25 (8.50)
- HSS7, Median [8]: 0.00
- HSS7 Change from baseline, Median [8]: −14.50
- HSS7 Percent change from baseline, Mean (SD) [8]: −75.00 (50.00) %
- HSS7 Percent change from baseline, Median [8]: −100.00%
- HSS7, Mean (SD) [9]: 9.63 (5.13)
- HSS7, Median [9]: 8.20
- HSS7 Change from baseline, Mean (SD) [9]: −5.12 (5.22)
- HSS7 Change from baseline, Median [9]: −3.50
- HSS7 Percent change from baseline, Mean (SD) [9]: −32.44 (31.06) %
- HSS7 Percent change from baseline, Median [9]: −26.11%
- HSS7, Mean (SD) [10]: 8.00 (NC)
- HSS7, Median [10]: 8.00
- HSS7 Change from baseline, Mean (SD) [10]: −12.00 (NC)
- HSS7 Change from baseline, Median [10]: −12.00
- HSS7 Percent change from baseline, Mean (SD) [10]: −60.00 (NC) %
- HSS7 Percent change from baseline, Median [10]: −60.00%
- HSS7, Mean (SD) [11]: 6.49 (5.14)
- HSS7, Median [11]: 6.00
- HSS7 Change from baseline, Mean (SD) [11]: −7.57 (5.71)
- HSS7 Change from baseline, Median [11]: −7.00
- HSS7 Percent change from baseline, Mean (SD) [11]: −52.28 (34.93) %
- HSS7 Percent change from baseline, Median [11]: −50.00%
- HSS7, Mean (SD) [12]: 3.42 (4.45)
- HSS7, Median [12]: 2.50
- HSS7 Change from baseline, Mean (SD) [12]: −12.61 (7.49)
- HSS7 Change from baseline, Median [12]: −12.00
- HSS7 Percent change from baseline, Mean (SD) [12]: −75.12 (24.22) %
- HSS7 Percent change from baseline, Median [12]: −75.37%
- HSS7, Mean (SD) [13]: 8.17 (6.62)
- HSS7, Median [13]: 7.00
- HSS7 Change from baseline, Mean (SD) [13]: −6.17 (6.01)
- HSS7 Change from baseline, Median [13]: −6.42
- HSS7 Percent change from baseline, Mean (SD) [13]: −43.56 (44.25) %
- HSS7 Percent change from baseline, Median [13]: −47.73%
- HSS7, Mean (SD) [14]: 5.97 (7.25)
- HSS7, Median [14]: 3.50
- HSS7 Change from baseline, Mean (SD) [14]: −8.83 (9.41)
- HSS7 Change from baseline, Median [14]: −12.00
- HSS7 Percent change from baseline, Mean (SD) [14]: −50.00 (62.36) %
- HSS7 Percent change from baseline, Median [14]: −83.33%
- HSS7, Mean (SD) [15]: 9.94 (5.76)
- HSS7, Median [15]: 8.28
- HSS7 Change from baseline, Mean (SD) [15]: −5.20 (5.64)
- HSS7 Change from baseline, Median [15]: −4.50
- HSS7 Percent change from baseline, Mean (SD) [15]: −33.60 (35.00) %
- HSS7 Percent change from baseline, Median [15]: −37.09%
- HSS7, Mean (SD) [16]: 8.00 (NC)
- HSS7, Median [16]: 8.00
- HSS7 Change from baseline, Mean (SD) [16]: −12.00 (NC)
- HSS7 Change from baseline, Median [16]: −12.00
- HSS7 Percent change from baseline, Mean (SD) [16]: −60.00 (NC) %
- HSS7 Percent change from baseline, Median [16]: −60.00%
- HSS7, Mean (SD) [17]: 6.78 (5.55)
- HSS7, Median [17]: 6.00
- HSS7 Change from baseline, Mean (SD) [17]: −7.22 (6.24)
- HSS7 Change from baseline, Median [17]: −7.00
- HSS7 Percent change from baseline, Mean (SD) [17]: −49.49 (37.97) %
- HSS7 Percent change from baseline, Median [17]: −46.15%
- HSS7, Mean (SD) [18]: 2.83 (4.62)
- HSS7, Median [18]: 1.00
- HSS7 Change from baseline, Mean (SD) [18]: −13.19 (6.97)
- HSS7 Change from baseline, Median [18]: −13.00
- HSS7 Percent change from baseline, Mean (SD) [18]: −81.39 (23.52) %
- HSS7 Percent change from baseline, Median [18]: −91.50%
